In series [1] the target is T1, Quinolone resistance protein NorA (Staphylococcus aureus) (UniProt P0A0J7).
T1 sequence (whole entry): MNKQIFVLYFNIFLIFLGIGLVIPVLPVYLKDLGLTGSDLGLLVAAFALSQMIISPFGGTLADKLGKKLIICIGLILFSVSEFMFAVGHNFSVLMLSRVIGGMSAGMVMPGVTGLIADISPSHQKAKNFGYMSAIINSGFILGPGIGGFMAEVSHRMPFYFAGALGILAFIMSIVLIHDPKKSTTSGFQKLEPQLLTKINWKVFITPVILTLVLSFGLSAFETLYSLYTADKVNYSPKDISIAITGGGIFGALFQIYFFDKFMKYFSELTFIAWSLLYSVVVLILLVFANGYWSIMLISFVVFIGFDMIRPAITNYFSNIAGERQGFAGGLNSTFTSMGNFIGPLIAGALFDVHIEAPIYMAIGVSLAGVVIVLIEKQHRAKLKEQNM
In words: Inhibition of NorA overexpressed in Staphylococcus aureus SA1199B assessed as decrease in ciprofloxacin MIC at 25 uM after 24 hrs by broth checkerboard method relative to control.

Series [2] deals with T2, ATP-dependent translocase ABCB1 (Homo sapiens, UniProt P08183). In words: Inhibition of P-gp in human LS180 cells at 50 uM after 90 mins by rhodamine123 cell exclusion method. In kind it is cell-based. Particulars: ls180, 1.5 h; call rule not given here.
Series [3] deals with Staphylococcus aureus. In words: Inhibition of MsrA overexpressed in Staphylococcus aureus K2191 assessed as decrease in erythromycin MIC at 12.5 uM after 24 hrs by broth checkerboard method relative to control.
The target in series [4] is T1, Quinolone resistance protein NorA (Staphylococcus aureus). In words: Inhibition of NorA overexpressed in Staphylococcus aureus SA1199B assessed as ciprofloxacin MIC at 12.5 uM after 24 hrs by broth checkerboard method (reference value: 8 ug/ml).
Series [5] deals with Staphylococcus aureus. As to the kind of experiment: Inhibition of TetK overexpressed in Staphylococcus aureus K2192 assessed as tetracycline MIC at 12.5 uM after 24 hrs by broth checkerboard method (reference value: 32 ug/ml).
Series [6] deals with T3, Fluoroquinolone resistance protein (Staphylococcus aureus) (UniProt A0A0C5K5S3).
T3 sequence (whole entry): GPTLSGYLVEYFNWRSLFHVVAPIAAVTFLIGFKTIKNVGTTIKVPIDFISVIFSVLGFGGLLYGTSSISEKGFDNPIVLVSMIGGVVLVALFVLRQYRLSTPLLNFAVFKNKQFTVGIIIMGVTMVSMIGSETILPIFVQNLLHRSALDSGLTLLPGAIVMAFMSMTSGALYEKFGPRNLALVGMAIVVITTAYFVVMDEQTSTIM
As to the kind of experiment: Inhibition of MdeA overexpressed in Staphylococcus aureus Mupr-1 assessed as decrease in mupirocin MIC at 12.5 uM after 24 hrs by broth checkerboard method relative to control.

Series [7] addresses T3, Fluoroquinolone resistance protein (Staphylococcus aureus). In words: Inhibition of MdeA overexpressed in Staphylococcus aureus Mupr-1 assessed as mupirocin MIC at 12.5 uM after 24 hrs by broth checkerboard method (reference value: 256 ug/ml).
Series [8] addresses T1, Quinolone resistance protein NorA (Staphylococcus aureus). In words: Inhibition of NorA overexpressed in Staphylococcus aureus SA1199B assessed as decrease in ciprofloxacin MIC at 12.5 uM after 24 hrs by broth checkerboard method relative to control.
Series [9] deals with Staphylococcus aureus. In words: Inhibition of MsrA overexpressed in Staphylococcus aureus K2191 assessed as erythromycin MIC at 12.5 uM after 24 hrs by broth checkerboard method (reference value: 64 ug/ml).
The test system of series [10] is Staphylococcus aureus. In words: Inhibition of TetK overexpressed in Staphylococcus aureus K2192 assessed as decrease in tetracycline MIC at 12.5 uM after 24 hrs by broth checkerboard method relative to control.
The test system of series [11] is Staphylococcus aureus. In words: Inhibition of TetK overexpressed in Staphylococcus aureus K2192 assessed as tetracycline MIC at 3.12 uM after 24 hrs by broth checkerboard method (reference value: 32 ug/ml).
For series [12], the target named is T1, Quinolone resistance protein NorA (Staphylococcus aureus). As to the kind of experiment: Inhibition of NorA overexpressed in Staphylococcus aureus SA1199B assessed as ciprofloxacin MIC at 3.12 uM after 24 hrs by broth checkerboard method (reference value: 8 ug/ml).
In series [13] the test system is Staphylococcus aureus. In words: Inhibition of MsrA overexpressed in Staphylococcus aureus K2191 assessed as decrease in erythromycin MIC at 3.12 uM after 24 hrs by broth checkerboard method relative to control.
Series [14] deals with T3, Fluoroquinolone resistance protein (Staphylococcus aureus). As to the kind of experiment: Inhibition of MdeA overexpressed in Staphylococcus aureus Mupr-1 assessed as decrease in mupirocin MIC at 3.12 uM after 24 hrs by broth checkerboard method relative to control.
For series [15], the system named is Staphylococcus aureus. In words: Inhibition of TetK overexpressed in Staphylococcus aureus K2192 assessed as decrease in tetracycline MIC at 3.12 uM after 24 hrs by broth checkerboard method relative to control.
The target in series [16] is T1, Quinolone resistance protein NorA (Staphylococcus aureus). As to the kind of experiment: Inhibition of NorA overexpressed in Staphylococcus aureus SA1199B assessed as decrease in ciprofloxacin MIC at 3.12 uM after 24 hrs by broth checkerboard method relative to control.
The subject of series [17] is Staphylococcus aureus. In words: Inhibition of MsrA overexpressed in Staphylococcus aureus K2191 assessed as erythromycin MIC at 3.12 uM after 24 hrs by broth checkerboard method (reference value: 64 ug/ml).
In series [18] the target is T3, Fluoroquinolone resistance protein (Staphylococcus aureus). In words: Inhibition of MdeA overexpressed in Staphylococcus aureus Mupr-1 assessed as mupirocin MIC at 3.12 uM after 24 hrs by broth checkerboard method (reference value: 256 ug/ml).
Series [19] deals with Staphylococcus aureus. In words: Inhibition of TetK overexpressed in Staphylococcus aureus K2192 assessed as tetracycline MIC at 25 uM after 24 hrs by broth checkerboard method (reference value: 32 ug/ml).
The target in another series is CYP3A4 (Homo sapiens, UniProt P08684). As to the kind of experiment: Inhibition of human CYP3A4 at 10 uM preincubated for 10 mins with cofactor followed by mixture of enzyme-substrate addition by fluorescence assay relative to control. In kind it is ADME.
The subject of series [20] is Staphylococcus aureus. As to the kind of experiment: Inhibition of MsrA overexpressed in Staphylococcus aureus K2191 assessed as erythromycin MIC at 25 uM after 24 hrs by broth checkerboard method (reference value: 64 ug/ml).
Series [21] concerns Staphylococcus aureus. As to the kind of experiment: Inhibition of MsrA overexpressed in Staphylococcus aureus K2191 assessed as decrease in erythromycin MIC at 25 uM after 24 hrs by broth checkerboard method relative to control.
The target in series [22] is T1, Quinolone resistance protein NorA (Staphylococcus aureus). In words: Inhibition of NorA overexpressed in Staphylococcus aureus SA1199B assessed as ciprofloxacin MIC at 25 uM after 24 hrs by broth checkerboard method (reference value: 8 ug/ml).
In series [23] the target is T3, Fluoroquinolone resistance protein (Staphylococcus aureus). In words: Inhibition of MdeA overexpressed in Staphylococcus aureus Mupr-1 assessed as decrease in mupirocin MIC at 25 uM after 24 hrs by broth checkerboard method relative to control.
Series [24] has as its system P-gp. As to the kind of experiment: Substrate activity at P-gp in human Caco2 cells assessed as efflux ratio of apparent permeability across basolateral to apical side over apical to basolateral side at 10 uM after 90 mins by HPLC with mass spectrometric method. In kind it is ADME, cell-based. The settings on record: Caco-2.
A further series has as its target CYP2D6 (Homo sapiens, UniProt P10635). As to the kind of experiment: Inhibition of human CYP2D6 at 10 uM preincubated for 10 mins with cofactor followed by mixture of enzyme-substrate addition by fluorescence assay relative to control. In kind it is ADME.
For series [25], the system named is P-gp. As to the kind of experiment: Substrate activity at P-gp in human Caco2 cells assessed as apparent permeability across apical to basolateral side at 10 uM after 90 mins by HPLC with mass spectrometric method. Format: ADME, cell-based. Particulars: Caco-2.
For series [26], the target named is T3, Fluoroquinolone resistance protein (Staphylococcus aureus). In words: Inhibition of MdeA overexpressed in Staphylococcus aureus Mupr-1 assessed as mupirocin MIC at 25 uM after 24 hrs by broth checkerboard method (reference value: 256 ug/ml).
In the next series the target is CYP2C9 (Homo sapiens, UniProt P11712). As to the kind of experiment: Inhibition of human CYP2C9 at 10 uM preincubated for 10 mins with cofactor followed by mixture of enzyme-substrate addition by fluorescence assay relative to control. Format: ADME.
Another series concerns the target CYP2C19 (Homo sapiens, UniProt P33261). As to the kind of experiment: Inhibition of human CYP2C19 at 10 uM preincubated for 10 mins with cofactor followed by mixture of enzyme-substrate addition by fluorescence assay relative to control. Format: ADME.
Series [27] deals with P-gp. As to the kind of experiment: Substrate activity at P-gp in human Caco2 cells assessed as apparent permeability across basolateral to apical side at 10 uM after 90 mins by HPLC with mass spectrometric method. Particulars: Caco-2. Format: ADME, cell-based.
For series [28], the target named is T2, ATP-dependent translocase ABCB1. In words: Inhibition of P-gp in human LS180 cells after 90 mins by rhodamine123 cell exclusion method. In kind it is cell-based.
Series [29] relates to Staphylococcus aureus. As to the kind of experiment: Inhibition of TetK overexpressed in Staphylococcus aureus K2192 assessed as decrease in tetracycline MIC at 25 uM after 24 hrs by broth checkerboard method relative to control.

The structures appear in SMILES notation.

Sequence of CYP2D6 (P10635 whole entry): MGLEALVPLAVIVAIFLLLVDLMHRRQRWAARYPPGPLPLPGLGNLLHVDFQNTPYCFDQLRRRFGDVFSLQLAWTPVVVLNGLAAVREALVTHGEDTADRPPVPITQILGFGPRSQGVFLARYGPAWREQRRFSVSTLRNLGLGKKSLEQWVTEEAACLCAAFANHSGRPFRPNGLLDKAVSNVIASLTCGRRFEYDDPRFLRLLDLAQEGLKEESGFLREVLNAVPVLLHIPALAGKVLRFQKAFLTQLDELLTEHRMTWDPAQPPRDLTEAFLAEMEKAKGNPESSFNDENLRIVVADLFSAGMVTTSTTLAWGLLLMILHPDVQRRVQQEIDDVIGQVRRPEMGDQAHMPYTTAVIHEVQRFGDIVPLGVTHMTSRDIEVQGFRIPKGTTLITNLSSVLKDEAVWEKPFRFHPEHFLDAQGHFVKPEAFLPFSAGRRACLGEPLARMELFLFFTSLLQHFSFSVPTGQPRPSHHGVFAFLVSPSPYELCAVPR
Sequence of CYP2C19 (P33261 whole entry): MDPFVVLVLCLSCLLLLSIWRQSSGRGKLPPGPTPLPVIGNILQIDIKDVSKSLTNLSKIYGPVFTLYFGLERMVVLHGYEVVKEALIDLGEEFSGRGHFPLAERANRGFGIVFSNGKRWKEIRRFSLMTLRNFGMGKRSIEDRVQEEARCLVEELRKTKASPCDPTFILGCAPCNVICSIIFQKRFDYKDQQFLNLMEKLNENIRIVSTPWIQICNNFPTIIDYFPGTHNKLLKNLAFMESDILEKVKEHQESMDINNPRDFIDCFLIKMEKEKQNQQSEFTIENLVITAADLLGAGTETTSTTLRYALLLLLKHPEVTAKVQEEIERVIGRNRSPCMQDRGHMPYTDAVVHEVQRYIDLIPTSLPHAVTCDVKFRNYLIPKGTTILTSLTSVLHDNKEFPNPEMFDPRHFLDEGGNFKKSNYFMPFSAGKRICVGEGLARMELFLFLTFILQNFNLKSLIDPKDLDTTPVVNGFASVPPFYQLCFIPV
Sequence of CYP3A4 (P08684 whole entry): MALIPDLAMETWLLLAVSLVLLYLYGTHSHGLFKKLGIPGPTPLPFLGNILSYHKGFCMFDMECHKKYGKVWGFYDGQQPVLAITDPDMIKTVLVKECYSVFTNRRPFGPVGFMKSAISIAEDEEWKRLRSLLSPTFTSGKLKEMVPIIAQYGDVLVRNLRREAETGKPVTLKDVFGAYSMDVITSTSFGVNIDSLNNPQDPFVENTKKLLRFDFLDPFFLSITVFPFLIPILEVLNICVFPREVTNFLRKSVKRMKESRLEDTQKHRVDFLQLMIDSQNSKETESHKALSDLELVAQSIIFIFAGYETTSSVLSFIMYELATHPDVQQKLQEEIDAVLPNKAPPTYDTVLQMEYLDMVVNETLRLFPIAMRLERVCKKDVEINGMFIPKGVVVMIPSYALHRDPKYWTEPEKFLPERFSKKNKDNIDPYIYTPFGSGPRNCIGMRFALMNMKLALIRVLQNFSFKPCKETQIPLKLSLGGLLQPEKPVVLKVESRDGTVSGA
Sequence of CYP2C9 (P11712 whole entry): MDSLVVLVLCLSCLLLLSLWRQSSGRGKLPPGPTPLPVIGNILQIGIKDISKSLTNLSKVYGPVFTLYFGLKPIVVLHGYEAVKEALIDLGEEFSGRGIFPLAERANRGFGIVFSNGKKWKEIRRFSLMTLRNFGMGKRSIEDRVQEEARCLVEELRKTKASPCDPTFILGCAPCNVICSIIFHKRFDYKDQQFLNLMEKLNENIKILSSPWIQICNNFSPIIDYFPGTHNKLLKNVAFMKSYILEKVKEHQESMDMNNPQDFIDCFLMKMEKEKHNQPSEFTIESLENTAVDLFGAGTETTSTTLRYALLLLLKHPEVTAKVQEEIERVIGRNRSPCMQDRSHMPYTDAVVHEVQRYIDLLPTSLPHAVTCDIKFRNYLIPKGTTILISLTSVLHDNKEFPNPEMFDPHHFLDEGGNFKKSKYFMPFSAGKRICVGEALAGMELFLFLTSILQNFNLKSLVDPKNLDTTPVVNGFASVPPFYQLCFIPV

With `COc1ccc(-c2cc(=O)c3c(OC)c(OC)c(OC)c(OC)c3o2)cc1` [TANGERETIN], the fold change (FC) in [1] is 2; with Staphylococcus aureus [3], 2; in [6], 2; in series [8] it was 2; with Staphylococcus aureus [10], 0. Further, the “inhibition (INH)” value in series [2] is recorded as “Not Active”. For the same compound, the MIC worked out at 4 µg/mL in series [4], 32 µg/mL in the series on Staphylococcus aureus [5], 128 µg/mL in [7] and 32 µg/mL in the series on Staphylococcus aureus [9].
For the compound `CC(=O)c1c(O)c(C)c(O)c(Cc2c3c(c(O)c4c2OC(c2ccccc2)CC4=O)C=CC(C)(C)O3)c1O` (stereo unspecified), the MIC in the series with Staphylococcus aureus [11] came out at 32 µg/mL; in series [12] it was 2 µg/mL; with Staphylococcus aureus [17], 64 µg/mL; in series [18], 256 µg/mL. In addition, the “inhibition (INH)” value in [2] is given as “Not Active”. The fold change (FC) is 0 in the series with Staphylococcus aureus [13], 0 in series [14], 0 in the series on Staphylococcus aureus [15] and 4 in [16].
Regarding `COc1ccc2ccc(=O)oc2c1CC=C(C)C` [OSTHOLE], the MIC worked out at 16 µg/mL with Staphylococcus aureus [19], 64 µg/mL in the series on Staphylococcus aureus [20], 2 µg/mL in [22] and 256 µg/mL in [26]. Moreover, the inhibition at 10 µM came to 27.3% at CYP3A4, 60.5% on CYP2D6, 39.8% on CYP2C9 and 56.5% on CYP2C19. For the same compound, the fold change (FC) in [1] was 4; in the series on Staphylococcus aureus [21], 0; in series [23], 0; in the series with Staphylococcus aureus [29] it was 2. The “inhibition (INH)” value in series [2] is reported as “Not Active”. In addition, the efflux ratio at 1.5 h, 10 µM with P-gp [24] stood at 1.3. The Papp A→B at 1.5 h, 10 µM in the series on P-gp [25] came out at 26 ×10⁻⁶ cm/s. Besides, the Papp B→A at 1.5 h, 10 µM with P-gp [27] was 35 ×10⁻⁶ cm/s. This compound registered a concentration for half-maximal inhibition (IC50) in [28] of 34 µM.
